Experimental data reported in ChEMBL document CHEMBL4130413, “1-Aryl-1H- and 2-aryl-2H-1,2,3-triazole derivatives blockade P2X7 receptor in vitro and inflammatory response in vivo” (Eur J Med Chem, 2017).

Columns and labels:
Cytochrome P450 2D6 = Cytochrome P450 2D6 (Homo sapiens, UniProt P10635)
Description: Drug metabolism assessed as CYP2D6 (unknown origin)-mediated metabolite formation

[1] = molecular target: T1, UDP-glucuronosyltransferase 1A10 (Homo sapiens, UniProt Q9HAW8); test: Drug metabolism assessed as UGT1A10 (unknown origin)-mediated metabolite formation; type: ADME
T1 sequence (Q9HAW8 whole entry): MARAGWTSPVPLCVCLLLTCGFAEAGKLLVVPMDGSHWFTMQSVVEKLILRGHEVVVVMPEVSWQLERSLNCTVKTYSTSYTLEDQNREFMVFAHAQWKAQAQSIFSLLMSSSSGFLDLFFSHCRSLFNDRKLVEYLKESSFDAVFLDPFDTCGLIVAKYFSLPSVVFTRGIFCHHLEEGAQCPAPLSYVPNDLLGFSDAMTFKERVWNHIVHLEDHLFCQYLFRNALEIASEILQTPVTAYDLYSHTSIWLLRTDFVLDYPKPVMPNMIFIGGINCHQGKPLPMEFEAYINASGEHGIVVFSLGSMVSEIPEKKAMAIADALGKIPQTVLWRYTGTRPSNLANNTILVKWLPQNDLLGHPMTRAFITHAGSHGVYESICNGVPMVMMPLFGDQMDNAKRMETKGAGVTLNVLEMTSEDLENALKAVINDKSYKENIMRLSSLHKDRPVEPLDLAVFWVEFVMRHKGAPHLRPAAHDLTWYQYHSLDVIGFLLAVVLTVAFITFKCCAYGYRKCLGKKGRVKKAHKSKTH

Cytochrome P450 2C19 = Cytochrome P450 2C19 (Homo sapiens, UniProt P33261)
Cytochrome P450 2C19, sequence (P33261 whole entry): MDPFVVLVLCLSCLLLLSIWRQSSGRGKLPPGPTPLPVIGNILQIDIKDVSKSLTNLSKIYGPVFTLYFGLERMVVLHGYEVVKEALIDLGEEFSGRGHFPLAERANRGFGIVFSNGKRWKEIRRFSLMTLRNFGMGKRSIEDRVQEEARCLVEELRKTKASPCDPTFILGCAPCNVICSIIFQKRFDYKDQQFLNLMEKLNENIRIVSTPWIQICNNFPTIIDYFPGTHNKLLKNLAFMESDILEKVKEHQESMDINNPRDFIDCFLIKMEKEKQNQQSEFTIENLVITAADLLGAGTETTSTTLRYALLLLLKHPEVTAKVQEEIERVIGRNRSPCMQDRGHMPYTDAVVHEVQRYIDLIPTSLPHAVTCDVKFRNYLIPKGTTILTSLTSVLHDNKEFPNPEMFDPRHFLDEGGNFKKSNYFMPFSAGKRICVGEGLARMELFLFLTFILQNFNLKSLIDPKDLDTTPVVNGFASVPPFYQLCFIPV
Description: Drug metabolism assessed as CYP2C19 (unknown origin)-mediated metabolite formation

[2] = molecular target: T2, UDP-glucuronosyltransferase 1A8 (Homo sapiens, UniProt Q9HAW9); test: Drug metabolism assessed as UGT1A8 (unknown origin)-mediated metabolite formation; type: ADME
T2 sequence (Q9HAW9 whole entry): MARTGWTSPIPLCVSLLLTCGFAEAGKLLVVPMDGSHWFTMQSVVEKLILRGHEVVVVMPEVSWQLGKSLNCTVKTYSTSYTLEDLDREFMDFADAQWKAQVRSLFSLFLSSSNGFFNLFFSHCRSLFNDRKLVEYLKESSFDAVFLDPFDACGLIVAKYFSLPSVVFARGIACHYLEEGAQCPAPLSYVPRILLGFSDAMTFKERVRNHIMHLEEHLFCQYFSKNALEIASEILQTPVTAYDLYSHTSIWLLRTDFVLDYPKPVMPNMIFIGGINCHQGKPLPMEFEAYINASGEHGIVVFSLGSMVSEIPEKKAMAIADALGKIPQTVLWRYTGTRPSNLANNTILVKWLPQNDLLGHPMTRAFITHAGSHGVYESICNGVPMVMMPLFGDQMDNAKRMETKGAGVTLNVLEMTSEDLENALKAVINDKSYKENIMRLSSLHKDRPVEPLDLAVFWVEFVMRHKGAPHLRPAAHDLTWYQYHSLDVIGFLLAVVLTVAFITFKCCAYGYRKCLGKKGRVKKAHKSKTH

[3] = molecular target: T3, UDP-glucuronosyltransferase 1A6 (Homo sapiens, UniProt P19224); test: Drug metabolism assessed as UGT1A6 (unknown origin)-mediated metabolite formation; type: ADME
T3 sequence (P19224 whole entry): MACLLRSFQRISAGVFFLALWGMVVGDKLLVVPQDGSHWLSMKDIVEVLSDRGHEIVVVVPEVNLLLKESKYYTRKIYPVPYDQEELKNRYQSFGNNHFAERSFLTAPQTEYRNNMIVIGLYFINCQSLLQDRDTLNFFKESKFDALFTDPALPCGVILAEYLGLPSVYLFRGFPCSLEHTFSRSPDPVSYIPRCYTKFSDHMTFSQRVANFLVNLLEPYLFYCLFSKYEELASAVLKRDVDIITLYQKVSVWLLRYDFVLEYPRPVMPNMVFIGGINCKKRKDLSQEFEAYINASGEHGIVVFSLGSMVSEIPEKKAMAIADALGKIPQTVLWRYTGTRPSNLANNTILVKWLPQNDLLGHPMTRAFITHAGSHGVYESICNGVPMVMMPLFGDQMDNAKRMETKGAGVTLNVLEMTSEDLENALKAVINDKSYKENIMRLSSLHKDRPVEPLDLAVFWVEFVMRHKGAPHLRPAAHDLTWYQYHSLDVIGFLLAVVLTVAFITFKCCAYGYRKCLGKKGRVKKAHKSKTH

[4] = molecular target: T4, UDP-glucuronosyltransferase 2B7 (Homo sapiens, UniProt P16662); test: Drug metabolism assessed as UGT2B7 (unknown origin)-mediated metabolite formation; type: ADME
T4 sequence (P16662 whole entry): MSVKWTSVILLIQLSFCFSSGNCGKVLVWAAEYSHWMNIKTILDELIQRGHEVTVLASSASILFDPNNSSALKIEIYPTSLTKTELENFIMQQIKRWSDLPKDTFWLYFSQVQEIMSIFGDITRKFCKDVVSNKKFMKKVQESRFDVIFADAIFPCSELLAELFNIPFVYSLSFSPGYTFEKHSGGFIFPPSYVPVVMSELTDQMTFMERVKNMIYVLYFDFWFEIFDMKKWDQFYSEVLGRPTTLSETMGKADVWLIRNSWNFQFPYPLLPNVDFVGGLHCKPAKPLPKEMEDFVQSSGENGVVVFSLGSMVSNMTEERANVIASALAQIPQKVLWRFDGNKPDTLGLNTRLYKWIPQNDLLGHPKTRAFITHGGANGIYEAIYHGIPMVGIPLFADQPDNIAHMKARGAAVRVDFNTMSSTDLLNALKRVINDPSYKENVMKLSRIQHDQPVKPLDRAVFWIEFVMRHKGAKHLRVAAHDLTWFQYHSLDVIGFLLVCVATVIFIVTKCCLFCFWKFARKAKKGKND

Cytochrome P450 2C9 = Cytochrome P450 2C9 (Homo sapiens, UniProt P11712)
Cytochrome P450 2C9, sequence (P11712 whole entry): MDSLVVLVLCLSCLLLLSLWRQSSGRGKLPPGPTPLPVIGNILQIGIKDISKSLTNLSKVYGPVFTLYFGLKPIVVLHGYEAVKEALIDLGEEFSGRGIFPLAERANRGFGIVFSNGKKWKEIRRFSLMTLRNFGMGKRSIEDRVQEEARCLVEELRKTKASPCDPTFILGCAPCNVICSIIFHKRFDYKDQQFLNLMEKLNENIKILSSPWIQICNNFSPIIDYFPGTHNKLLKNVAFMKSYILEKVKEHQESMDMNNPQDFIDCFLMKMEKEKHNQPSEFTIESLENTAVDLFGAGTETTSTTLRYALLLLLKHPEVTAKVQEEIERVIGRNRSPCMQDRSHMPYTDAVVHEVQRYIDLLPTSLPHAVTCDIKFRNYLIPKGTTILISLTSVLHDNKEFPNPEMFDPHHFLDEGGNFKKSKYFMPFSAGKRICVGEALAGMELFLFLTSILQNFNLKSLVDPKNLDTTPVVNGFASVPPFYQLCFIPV
Description: Drug metabolism assessed as CYP2C9 (unknown origin)-mediated metabolite formation

[5] = molecular target: T5, UDP-glucuronosyltransferase 2B15 (Homo sapiens, UniProt P54855); test: Drug metabolism assessed as UGT2B15 (unknown origin)-mediated metabolite formation; type: ADME
T5 sequence (P54855 whole entry): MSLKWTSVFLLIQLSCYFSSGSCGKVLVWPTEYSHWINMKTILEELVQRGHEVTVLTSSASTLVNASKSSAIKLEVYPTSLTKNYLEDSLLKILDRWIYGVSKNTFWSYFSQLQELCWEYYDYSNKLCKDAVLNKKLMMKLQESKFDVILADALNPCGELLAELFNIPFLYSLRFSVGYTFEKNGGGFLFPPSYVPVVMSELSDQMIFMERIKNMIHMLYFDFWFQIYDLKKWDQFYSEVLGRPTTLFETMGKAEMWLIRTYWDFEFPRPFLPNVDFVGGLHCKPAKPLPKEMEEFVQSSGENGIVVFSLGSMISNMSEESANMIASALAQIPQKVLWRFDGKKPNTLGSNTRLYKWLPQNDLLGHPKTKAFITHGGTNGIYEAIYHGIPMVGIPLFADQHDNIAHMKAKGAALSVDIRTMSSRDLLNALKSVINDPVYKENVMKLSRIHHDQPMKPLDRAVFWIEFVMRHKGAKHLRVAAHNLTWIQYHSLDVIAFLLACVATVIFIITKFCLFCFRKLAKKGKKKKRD

Cytochrome P450 3A4 = Cytochrome P450 3A4 (Homo sapiens, UniProt P08684)
Cytochrome P450 3A4, sequence (P08684 whole entry): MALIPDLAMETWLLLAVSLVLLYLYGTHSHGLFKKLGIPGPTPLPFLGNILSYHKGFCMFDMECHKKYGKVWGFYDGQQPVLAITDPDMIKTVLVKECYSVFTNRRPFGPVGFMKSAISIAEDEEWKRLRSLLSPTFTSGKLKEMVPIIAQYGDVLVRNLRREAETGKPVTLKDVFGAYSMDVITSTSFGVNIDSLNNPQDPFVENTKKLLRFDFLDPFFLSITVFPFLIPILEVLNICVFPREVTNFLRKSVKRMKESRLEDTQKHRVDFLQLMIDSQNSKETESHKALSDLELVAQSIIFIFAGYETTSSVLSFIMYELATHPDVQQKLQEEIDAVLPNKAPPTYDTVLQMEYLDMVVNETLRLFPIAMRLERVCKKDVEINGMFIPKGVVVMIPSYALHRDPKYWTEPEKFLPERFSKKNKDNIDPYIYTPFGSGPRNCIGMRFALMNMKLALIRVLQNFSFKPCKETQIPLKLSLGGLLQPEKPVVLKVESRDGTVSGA
Description: Drug metabolism assessed as CYP3A4 (unknown origin)-mediated metabolite formation

Cytochrome P450 2D6, sequence (P10635 whole entry): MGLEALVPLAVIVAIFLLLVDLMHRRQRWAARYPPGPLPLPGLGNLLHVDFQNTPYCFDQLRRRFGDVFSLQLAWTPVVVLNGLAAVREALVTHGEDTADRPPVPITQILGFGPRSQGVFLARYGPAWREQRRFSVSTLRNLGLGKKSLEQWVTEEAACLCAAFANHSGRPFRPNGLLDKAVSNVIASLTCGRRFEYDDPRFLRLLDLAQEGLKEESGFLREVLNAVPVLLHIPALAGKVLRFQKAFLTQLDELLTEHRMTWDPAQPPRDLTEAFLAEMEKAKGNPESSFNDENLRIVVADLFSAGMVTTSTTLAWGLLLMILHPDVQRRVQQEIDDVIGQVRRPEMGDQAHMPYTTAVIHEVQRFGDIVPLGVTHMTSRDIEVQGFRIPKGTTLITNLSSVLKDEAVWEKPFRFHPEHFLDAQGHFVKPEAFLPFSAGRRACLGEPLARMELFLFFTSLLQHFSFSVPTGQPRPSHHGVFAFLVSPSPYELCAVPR

## CC(C)Cc1ccc(C(C)C(=O)O)cc1 (configuration not stated) [IBUPROFEN]
Cytochrome P450 2D6
  Drug metabolism: Metabolite_Notdetected
[1]
  Drug metabolism: Metabolite_Notdetected
Cytochrome P450 2C19
  Drug metabolism: Metabolite_Notdetected
[2]
  Drug metabolism: Metabolite_Notdetected
[3]
  Drug metabolism: Metabolite_Detected
[4]
  Drug metabolism: Metabolite_Detected
Cytochrome P450 2C9
  Drug metabolism: Metabolite_Detected
[5]
  Drug metabolism: Metabolite_Notdetected
Cytochrome P450 3A4
  Drug metabolism: Metabolite_Notdetected

## O=C(O)Cc1ccccc1Nc1c(Cl)cccc1Cl [DICLOFENAC]
Cytochrome P450 2D6
  Drug metabolism: Metabolite_Notdetected
[1]
  Drug metabolism: Metabolite_Notdetected
Cytochrome P450 2C19
  Drug metabolism: Metabolite_Notdetected
[2]
  Drug metabolism: Metabolite_Notdetected
[3]
  Drug metabolism: Metabolite_Notdetected
[4]
  Drug metabolism: Metabolite_Detected
Cytochrome P450 2C9
  Drug metabolism: Metabolite_Detected
[5]
  Drug metabolism: Metabolite_Notdetected
Cytochrome P450 3A4
  Drug metabolism: Metabolite_Notdetected

## CCOCc1cn(-c2ccc(Cl)cc2)nn1
Cytochrome P450 2D6
  Drug metabolism: Metabolite_Notdetected
[1]
  Drug metabolism: Metabolite_Notdetected
Cytochrome P450 2C19
  Drug metabolism: Metabolite_Notdetected
[2]
  Drug metabolism: Metabolite_Notdetected
[3]
  Drug metabolism: Metabolite_Notdetected
[4]
  Drug metabolism: Metabolite_Notdetected
Cytochrome P450 2C9
  Drug metabolism: Metabolite_Notdetected
[5]
  Drug metabolism: Metabolite_Notdetected
Cytochrome P450 3A4
  Drug metabolism: Metabolite_Notdetected

## COc1ccc2cc([C@H](C)C(=O)O)ccc2c1 [NAPROXEN]
[1]
  Drug metabolism: Metabolite_Notdetected
[2]
  Drug metabolism: Metabolite_Notdetected
[3]
  Drug metabolism: Metabolite_Detected
[4]
  Drug metabolism: Metabolite_Detected
[5]
  Drug metabolism: Metabolite_Notdetected
